Assay results as given in PMC4105567, “Aurora Kinases as Druggable Targets in Pediatric Leukemia: Heterogeneity in Target Modulation Activities and Cytotoxicity by Diverse Novel Therapeutic Agents” (PLoS ONE, 2014).
Like-named read-outs stand apart in the source and are kept apart here.

Tests used:
Aurora-A = system: Aurora-A; design: method as in earlier work; settings: literature values; ref [10],[22],[27],[40],[44]–[64] as listed per inhibitor in Table 1; read-out: Targets (IC50 Value): Aurora-A; cited from earlier work
CEM T-ALL cell line = experiment: Cytotoxicity assay, CEM; type: cell-based, human; settings: four days in culture, Alamar blue assay or automated microscopy, ± SD, three experiments
Protocol: (§1) Cell lines were cultured in Opti-MEM medium (Gibco, Life Technologies Corporation, Burlington, Ontario) supplemented with 10% heat inactivated fetal bovine serum (FBS) (Gibco), 100 units/ml penicillin and 100 units/ml streptomycin (Gibco) and 0.05 mM 2-mercaptoethanol (Sigma-Aldrich, Oakville, Ontario) in T25 flasks (Nalge Nunc, Rochester, New York) or T75 flasks (Corning Incorporated, Corning, New York). All cell cultures were maintained at 37°C in a humidified incubator with 5% CO2.
(§2) For cytotoxicity profiling of Aurora kinase inhibitors against leukemia cell lines, inhibitors or vehicle control (DMSO, Sigma-Aldrich) were diluted in 100 µl of Opti-MEM per well in 96 well plates (Grenier Bio-One, Monroe, North Carolina) in triplicate at final concentrations ranging from 1×10^−6 to 10 µM. 1×10^4 cells per well were seeded and plates were incubated for 4 days. Following incubation for 4 days, cell survival was quantified by Alamar blue assay (Invitrogen) or automated inverted microscopy using the Celigo Cell Cytometer (Cyntellect, San Diego, California). […] During this period of incubation, the absorbance at 570–620 nm was measured (Opsys MR Plate Reader, Dynex Technologies, Chantilly, Virginia) at various time points, depending on the cell line or sample. Percent survival was calculated by comparing the absorbance ratio of the test well to the control well multiplied by 100%, as indicated in the following formula: […]
(§3) For automated inverted microscopy, the number of cells in each well was determined using the direct cell counting application as described previously. Briefly, following adjustment of image acquisition settings for bright-field imaging, the wells containing cells and appropriate dilutions of inhibitors were individually scanned. Based on these images, analysis parameters, including intensity threshold and cell diameter, were modified for optimal inclusion of viable cells in treated and control wells. These parameters were applied for subsequent replicates involving the same leukemia cell line or sample. The percent survival was then calculated as a ratio of the number of cells in treated wells to the number of cells in control wells multiplied by 100%. Given that Aurora kinase inhibitors interfere with cytokinesis, cells that are committed to death may still contain enlarging but intact cytoplasmic content before the eventual loss of cytoplasmic membrane integrity. The accuracy of Alamar blue assay may be, in theory, affected by the timing of these events.

SEM B-ALL cell line = experiment: Cytotoxicity assay, SEM; type: cell-based; settings: Homo sapiens, 96 h, four days in culture, Alamar blue assay or automated microscopy, ± SD, three experiments
Protocol: as §1, §2, §3

[1] = system: Patient #5 ALL/AML primary leukemia cells; experiment: Cytotoxicity assay, primary sample Patient #5; type: cell-based, human; settings: primary sample, four days in culture, Alamar blue assay or automated microscopy, one complete study, read-out: IC50, Patient #5 ALL/AML
Protocol: (§4) These include B-ALL (Patient #1), relapsed AML (Patient #2), AML/CML (Patient #3), infant ALL (Patient #4), and initial ALL presenting with secondary AML (Patient #5). […] The diluted sample was then layered on a Ficoll-Paque (GE Healthcare, Piscataway, New Jersey) gradient at a 1∶2 ratio of Ficoll to diluted sample. Samples were then centrifuged 1800 rpm for 20 minutes at room temperature. The buffy coat was removed with a pipette and transferred to a new centrifuge tube and diluted with PBS. After an additional centrifugation at 1200 rpm, the white blood cell pellet was washed with PBS and centrifuged one last time. Cells were re-suspended in Opti-MEM and viable cells were counted using trypan blue (Invitrogen, Life Technologies Corporation, Burlington, Ontario) exclusion on a haemocytometer. An identical protocol was followed for the isolation of white blood cells, referred to as “normal lymphocytes” in the following paragraphs, from healthy volunteers. Samples grown in culture for up to six months were cultured in Opti-MEM medium supplemented with 10% heat inactivated FBS, penicillin/streptomycin and 2-mercaptoethanol.
as §2, §3

Bone Marrow Stroma = experiment: Cytotoxicity assay, bone marrow stroma; type: cell-based, human; settings: bone marrow stroma (control for non-leukemia cytotoxicity), four days in culture, ± SD, three experiments
Protocol: as §2, §3

[2] = system: Patient #4 infant leukemia primary cells; experiment: Cytotoxicity assay, primary sample Patient #4; type: cell-based, human; settings: four days in culture, Alamar blue assay or automated microscopy, one complete study
Protocol: as §4, §2, §3

Aurora-B = system: Aurora-B; design: method as in earlier work; settings: literature values; ref [10],[22],[27],[40],[44]–[64] as listed per inhibitor in Table 1; read-out: Targets (IC50 Value): Aurora-B; cited from earlier work
Nalm6 B-ALL cell line = experiment: Cytotoxicity assay, Nalm6; type: cell-based, human; settings: four days in culture, Alamar blue assay or automated microscopy, ± SD, three experiments
Protocol: as §1, §2, §3

C1 B-ALL cell line = experiment: Cytotoxicity assay, C1; type: cell-based, human; settings: four days in culture, Alamar blue assay or automated microscopy, ± SD, three experiments
Protocol: as §1, §2, §3

Molm13 AML cell line = experiment: Cytotoxicity assay, Molm13; type: cell-based, human; settings: four days in culture, Alamar blue assay or automated microscopy, ± SD, three experiments
Protocol: as §1, §2, §3

HL-60 RA APML cell line = experiment: Cytotoxicity assay, HL-60 RA; type: cell-based, human; settings: APML cell line HL-60 RA, four days in culture, Alamar blue assay or automated microscopy, ± SD, three experiments
Protocol: as §1, §2, §3

[3] = system: Patient #3 AML/CML primary leukemia cells; experiment: Cytotoxicity assay, primary sample Patient #3; type: cell-based, human; settings: Homo sapiens, 96 h, four days in culture, Alamar blue assay or automated microscopy, one complete study
Protocol: as §4, §2, §3

MV4-11 AML cell line = experiment: Cytotoxicity assay, MV4-11; type: cell-based, human; settings: AML cell line MV4-11, four days in culture, Alamar blue assay or automated microscopy, ± SD, three experiments
Protocol: as §1, §2, §3

B1 B-ALL cell line = experiment: Cytotoxicity assay, B1; type: cell-based, human; settings: four days in culture, Alamar blue assay or automated microscopy, ± SD, three experiments
Protocol: as §1, §2, §3

KOPN8 B-ALL cell line = experiment: Cytotoxicity assay, KOPN8; type: cell-based, human; settings: four days in culture, Alamar blue assay or automated microscopy, ± SD, three experiments
Protocol: as §1, §2, §3

[4] = system: Patient #1 B-ALL primary leukemia cells; experiment: Cytotoxicity assay, primary sample Patient #1; type: cell-based, human; settings: four days in culture, Alamar blue assay or automated microscopy, one complete study
Protocol: as §4, §2, §3

Normal Lymphocytes = experiment: Cytotoxicity assay, normal lymphocytes; type: cell-based, human; settings: normal lymphocytes (control for non-leukemia cytotoxicity), four days in culture, ± SD, three experiments
Protocol: as §4, §2, §3

HL-60 APML cell line = experiment: Cytotoxicity assay, HL-60; type: cell-based, human; settings: APML cell line HL-60, four days in culture, Alamar blue assay or automated microscopy, ± SD, three experiments
Protocol: as §1, §2, §3

Molt-3 T-ALL cell line = experiment: Cytotoxicity assay, Molt-3; type: cell-based, human; settings: T-ALL cell line Molt-3, four days in culture, Alamar blue assay or automated microscopy, ± SD, three experiments
Protocol: as §1, §2, §3

NB4 APML cell line = experiment: Cytotoxicity assay, NB4; type: cell-based, human; settings: four days in culture, Alamar blue assay or automated microscopy, ± SD, three experiments
Protocol: as §1, §2, §3

TIB-202 AML cell line = experiment: Cytotoxicity assay, TIB-202; type: cell-based, human; settings: AML cell line TIB-202, four days in culture, Alamar blue assay or automated microscopy, ± SD, three experiments
Protocol: as §1, §2, §3

[5] = system: normal cells versus leukemia cell lines; experiment: Comparison of cytotoxicity IC50 values, normal cells versus leukemia cell lines; type: cell-based, human; settings: normal lymphocytes and bone marrow stroma versus leukemia cell lines of Table 2
Protocol: as §2, §3

[6] = system: Patient #2 relapsed AML primary leukemia cells; experiment: Cytotoxicity assay, primary sample Patient #2; type: cell-based, human; settings: four days in culture, Alamar blue assay or automated microscopy, one complete study
Protocol: as §4, §2, §3

UOCB1 B-ALL cell line = experiment: Cytotoxicity assay, UOCB1; type: cell-based, human; settings: four days in culture, Alamar blue assay or automated microscopy, ± SD, three experiments
Protocol: as §1, §2, §3

CCN(CCCOc1ccc2c(Nc3cc(CC(=O)Nc4cccc(F)c4)n[nH]3)ncnc2c1)CCOP(=O)(O)O [AZD1152]
IC50 (Aurora-A): […] | IC50 (CEM T-ALL cell line; Homo sapiens, 96 h): < 0.001 nM | IC50 (SEM B-ALL cell line): 100 ± 60 nM | IC50 ([1]; Homo sapiens, 96 h): 0.02 nM | IC50 (Bone Marrow Stroma; Homo sapiens, 96 h): > 10000 nM | IC50 ([2]; Homo sapiens, 96 h): > 10000 nM | IC50 (Aurora-B): […] | IC50 (Nalm6 B-ALL cell line; Homo sapiens, NALM-6, 96 h): 8 ± 2 nM | IC50 (C1 B-ALL cell line; Homo sapiens, 96 h): 0.8 nM | IC50 (Molm13 AML cell line; Homo sapiens, MOLM-13, 96 h): 7 ± 3 nM | IC50 (HL-60 RA APML cell line; Homo sapiens, 96 h): 0.7 nM | IC50 [3]: > 10000 nM | IC50 (MV4-11 AML cell line; Homo sapiens, 96 h): 0.9 nM | IC50 (B1 B-ALL cell line; Homo sapiens, 96 h): 200 ± 100 nM | IC50 (KOPN8 B-ALL cell line; Homo sapiens, KOPN-8, 96 h): 0.2 nM | IC50 ([4]; Homo sapiens, 96 h): 0.005 nM | IC50 (Normal Lymphocytes; Homo sapiens, Lymphocyte, 96 h): > 10000 nM | IC50 (HL-60 APML cell line; Homo sapiens, 96 h): 300 ± 90 nM | IC50 (Molt-3 T-ALL cell line; Homo sapiens, 96 h): < 0.001 nM | IC50 (NB4 APML cell line; Homo sapiens, 96 h): 50 ± 20 nM | IC50 (TIB-202 AML cell line; Homo sapiens, 96 h): 500 ± 200 nM | IC50 values for the normal cells compared with IC50 values for the leukemia cell lines (potential therapeutic window) [5]: higher than the IC50 values for the leukemia cell lines | IC50 ([6]; Homo sapiens, 96 h): 600 nM | IC50 (UOCB1 B-ALL cell line; Homo sapiens, UoC-B1, 96 h): 0.6 nM

CN(C)c1ccc(-c2nc3ncc(Cl)c(N4CCN(CC(=O)Nc5nccs5)CC4)c3[nH]2)cc1 [CCT129202]
IC50 (Aurora-A): 40 nM | IC50 (CEM T-ALL cell line): 900 ± 50 nM | IC50 [1]: 70 nM | IC50 (Bone Marrow Stroma): 1000 ± 700 nM | IC50 [2]: > 10000 nM | IC50 (Aurora-B): 200 nM | IC50 (Nalm6 B-ALL cell line): 2000 ± 800 nM | IC50 (C1 B-ALL cell line): 3000 ± 800 nM | IC50 (Molm13 AML cell line): 5000 ± 900 nM | IC50 (HL-60 RA APML cell line): 8000 ± 500 nM | IC50 (MV4-11 AML cell line): 100 ± 60 nM | IC50 (B1 B-ALL cell line): 3000 ± 600 nM | IC50 (KOPN8 B-ALL cell line): 700 ± 100 nM | IC50 [4]: 700 nM | IC50 (Normal Lymphocytes): > 10000 nM | IC50 (HL-60 APML cell line): 7000 ± 800 nM | IC50 (Molt-3 T-ALL cell line): 2000 ± 600 nM | IC50 (NB4 APML cell line): > 10000 nM | IC50 (TIB-202 AML cell line): 50 ± 5 nM | IC50 values for the normal cells compared with IC50 values for the leukemia cell lines (potential therapeutic window) [5]: lower than the IC50 values for the normal cells, but not as pronounced | IC50 [6]: 400 nM | IC50 (UOCB1 B-ALL cell line): 900 ± 90 nM
